Laboratory results taken from patent US11365199B2, “Pyrazole compounds as modulators of FSHR and uses thereof” (Merck Patent GmbH, priority 2013, dated 2022).
Where a name gives a salt, the structure may show the parent alone. Read-outs that look alike come from different tables or passages of the source.

Biological target: T1, FSHR (Homo sapiens, UniProt P23945)
T1 construct: expressed in transfected cells; host or cells: CHO (Cho-FSHR-LUC-1-1-43)
T1 sequence (P23945 18-695): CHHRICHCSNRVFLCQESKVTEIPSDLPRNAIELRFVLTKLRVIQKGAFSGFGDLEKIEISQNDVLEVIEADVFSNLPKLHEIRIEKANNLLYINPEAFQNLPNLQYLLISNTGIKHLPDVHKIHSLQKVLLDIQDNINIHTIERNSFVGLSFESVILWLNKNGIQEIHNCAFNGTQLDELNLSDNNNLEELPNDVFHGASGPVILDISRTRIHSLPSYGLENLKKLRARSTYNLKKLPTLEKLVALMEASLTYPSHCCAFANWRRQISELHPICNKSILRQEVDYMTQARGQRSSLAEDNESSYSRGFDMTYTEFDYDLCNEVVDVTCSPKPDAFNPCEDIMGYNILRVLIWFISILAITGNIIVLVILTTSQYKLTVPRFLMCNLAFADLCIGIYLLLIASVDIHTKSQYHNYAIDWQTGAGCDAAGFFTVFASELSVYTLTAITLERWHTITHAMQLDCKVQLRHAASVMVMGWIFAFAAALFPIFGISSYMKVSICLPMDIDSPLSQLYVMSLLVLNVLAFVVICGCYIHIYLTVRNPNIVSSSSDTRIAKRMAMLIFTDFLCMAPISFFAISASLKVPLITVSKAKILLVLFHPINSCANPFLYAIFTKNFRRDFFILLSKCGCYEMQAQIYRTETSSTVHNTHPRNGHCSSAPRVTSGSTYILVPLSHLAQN
Experiment: EC50 of cyclic AMP production in CHO FSHR cells + EC20 FSH (Assay A)
Assay type: cell-based
Experimental: EC50 of Cyclic AMP Production in CHO FSHR Cells+EC20 FSH (Assay A)
2500 Cho-FSHR-LUC-1-1-43 cells were plated per well in 5 μl of phenol red free DMEM/F12+1% FBS. Cells were plated in 384 well, solid white low volume plates (Greiner 784075) by Multidrop. Cells were assayed by adding 100 μl of 2×EC20 FSH/IBMX in DMEM/F12+0.1% BSA) by Multidrop to 2 μl of test compound stamped in 384 well plates (compounds are diluted 1:50). The final FSH concentration was […], and the final IBMX concentration was 200 μM. The compound plate map was as follows: Column 1: 2 μl of DMSO; Column 2: 2 μl of DMSO; Columns 3-12 and 13-24: 2 μl of test compound, diluted 1:4 in 100% DMSO, or 2 μl of FSH, diluted 1:4 in DMEM/F12+0.1% BSA. The starting concentration for FSH was 50 nM (final concentration was 0.5 nM). Furthermore, Column 23 contained 2 μl of EC100 FSH reference (100×) (diluted in DMEM/F12+0.1% BSA) at a final concentration of 0.5 nM, and Column 24 contained 2 μl of 1 mM AS707664/2 reference compound 2. 5 μl of compound+EC20 FSH mixture were transferred to cell plates (1:2 dilution into 5 μl of cell media) The plates were incubated at 37° C. for 1 h. 10 μl of mixed HTRF (CisBio #62AM4PEC) reagents were added per well and incubated at room temperature for 1 h. The plates were read on Envision using the cAMP HTRF—low volume 384 well protocol. The readout was the calculated fluorescence ratio (665 nm/620 nm). Values given in percent (%) indicate the percental effect (response) at a certain concentration of agonist relative to the maximum response of the FSH standard.

[1] = CHO FSHR cells + EC20 FSH, cAMP HTRF, read-out: Assay A: EC50 of cyclic AMP production

EC50 [1] [nM] | Structure (SMILES) | EC50 [nM]
> 5000 | COc1cc2c(cc1OC(C)C)-c1c(c(C(=O)N3CCCC(C(=O)O)CC3)nn1-c1ccsc1)CO2 (stereo not shown) [Compound 25, 1-(8-Isopropoxy-7-methoxy-1-thiophen-3-yl-1,4-dihydro-chromeno[4,3-c]pyrazole-3-carbonyl)-azepane-4-carboxylic acid] | 
> 5000 | COc1cc2c(cc1S(=O)(=O)C(C)C)-c1c(c(C(=O)NC3(CO)COC3)nn1-c1ccsc1)CO2 [Compound 187, 7-Methoxy-8-(propane-2-sulfonyl)-1-thiophen-3-yl-1,4-dihydro-chromeno[4,3-c]pyrazole-3-carboxylic Acid (3-hydroxymethyl-oxetan-3-yl)-amide] | 
< 100 | [2H]C([2H])([2H])N(CCN1CCOC1=O)C(=O)c1nn(-c2ccsc2)c2c1COc1cc(OC)c(C=C(C)C)cc1-2 [Compound 56] | 
1000 to 5000 | COc1cc2c(cc1C=C(C)C)-c1c(c(C(=O)NCCCc3nnn[nH]3)nn1-c1ccsc1)CO2 [Compound 11, 7-Methoxy-8-(2-methyl-propenyl)-1-thiophen-3-yl-1,4-dihydro-chromeno[4,3-c]pyrazole-3-carboxylic acid [3-(1H-tetrazol-5-yl)-propyl]-amide; trifluoro-acetic acid salt] | 
< 100 | COc1cc2c(cc1-c1cnn(C)c1)-c1c(c(C(=O)N(C)C(C)(C)C)nn1-c1ccsc1)CO2 [Compound 66, 7-Methoxy-8-(1-methyl-1H-pyrazol-4-yl)-1-thiophen-3-yl-1,4-dihydro-chromeno[4,3-c]pyrazole-3-carboxylic acid tert-butyl-methyl-amide] | 
< 100 | COc1cc2c(cc1-c1c(C)noc1C)-c1c(c(C(=O)N(C)C(C)(C)C)nn1-c1ccsc1)CO2 [Compound 67, 8-(3,5-Dimethyl-isoxazol-4-yl)-7-methoxy-1-thiophen-3-yl-1,4-dihydro-chromeno[4,3-c]pyrazole-3-carboxylic acid tert-butyl-methyl-amide] | 
> 5000 | COc1cc2c(cc1S(=O)(=O)C(C)C)-c1c(c(C(=O)NC3(C)COC3)nn1-c1ccsc1)CO2 [Compound 188, 7-Methoxy-8-(propane-2-sulfonyl)-1-thiophen-3-yl-1,4-dihydro-chromeno[4,3-c]pyrazole-3-carboxylic Acid (3-methyl-oxetan-3-yl)-amide] | 
< 100 | COc1cc2c(cc1C=C(C)C)-c1c(c(C(=O)N(C)CCN(C)C(C)=O)nn1-c1ccsc1)CO2 [Compound 34] | 
< 100 | COc1cc2c(cc1-c1cnc(C)n1C)-c1c(c(C(=O)N(C)C(C)(C)C)nn1-c1ccsc1)CO2 [Compound 92, 8-(2,3-Dimethyl-3H-imidazol-4-yl)-7-methoxy-1-thiophen-3-yl-1,4-dihydro-chromeno[4,3-c]pyrazole-3-carboxylic acid tert-butyl-methyl-amide] | 
< 100 | [2H]C([2H])([2H])N(CCN1CCOC1=O)C(=O)c1nn(-c2ccsc2)c2c1COc1cc(OC)c(-c3cn[nH]c3)cc1-2 [Compound 85] | 
< 100 | COc1cc2c(cc1-c1cnn(CCC#N)c1)-c1c(c(C(=O)N3CCOCC3(C)C)nn1-c1ccsc1)CO2 [Compound 190, 3-{4-[3-(3,3-Dimethyl-morpholine-4-carbonyl)-7-methoxy-1-thiophen-3-yl-1,4-dihydro-chromeno[4,3-c]pyrazol-8-yl]-pyrazol-1-yl}-propionitrile] | 
100 to 1000 | COc1cc2c(cc1-c1ccn(C)n1)-c1c(c(C(=O)N3CCN(C(=O)OC(C)(C)C)CC3(C)C)nn1-c1ccsc1)CO2 [Compound 156, 4-[7-Methoxy-8-(1-methyl-1H-pyrazol-3-yl)-1-thiophen-3-yl-1,4-dihydro-chromeno[4,3-c]pyrazole-3-carbonyl]-3,3-dimethyl-piperazine-1-carboxylic acid tert-butyl ester] | 
< 100 | C=CCn1cc(-c2cc3c(cc2OC)OCc2c(C(=O)N4CCOCC4(C)C)nn(-c4ccsc4)c2-3)cn1 [Compound 207, [8-(1-Allyl-1H-pyrazol-4-yl)-7-methoxy-1-thiophen-3-yl-1,4-dihydro-chromeno[4,3-c]pyrazol-3-yl]-(3,3-dimethyl-morpholin-4-yl)-methanone] | 
100 to 1000 | [2H]C([2H])([2H])OCC(C)(C)NC(=O)c1nn(-c2ccsc2)c2c1COc1cc(OC)c(C=C(C)C)cc1-2 [Compound 59] | 
1000 to 5000 | [2H]C([2H])([2H])O[C@H]1CC[C@H](N(C(=O)c2nn(-c3ccsc3)c3c2COc2cc(OC)c(-c4ccn(C)c4)cc2-3)C([2H])([2H])[2H])C1 [Compound 197] | 
< 100 | COc1cc2c(cc1-c1cc(C)n(C)c1C)-c1c(c(C(=O)N3CCOCC3(C)C)nn1-c1ccsc1)CO2 [Compound 120, (3,3-Dimethyl-morpholin-4-yl)-[7-methoxy-1-thiophen-3-yl-8-(1,2,5-trimethyl-1H-pyrrol-3-yl)-1,4-dihydro-chromeno[4,3-c]pyrazol-3-yl]-methanone] | 
100 to 1000 | COc1cc2c(cc1-c1ccn(C)n1)-c1c(c(C(=O)NC(C)(CO)CO)nn1-c1ccsc1)CO2 [Compound 185, 7-Methoxy-8-(1-methyl-1H-pyrazol-3-yl)-1-thiophen-3-yl-1,4-dihydro-chromeno[4,3-c]pyrazole-3-carboxylic Acid (2-hydroxy-1-hydroxymethyl-1-methyl-ethyl)-amide] | 
100 to 1000 | [2H]C([2H])([2H])N(CCCN(C(=O)C1CCC1)C([2H])([2H])[2H])C(=O)c1nn(-c2ccsc2)c2c1COc1cc(OC)c(C=C(C)C)cc1-2 [Compound 69] | 
< 100 | COc1cc2c(cc1C=C(C)C)-c1c(c(C(=O)N3CCCC3(C)CO)nn1-c1ccsc1)CO2 (stereo not shown) [Compound 48, (2-Hydroxymethyl-2-methyl-pyrrolidin-1-yl)-[7-methoxy-8-(2-methyl-propenyl)-1-thiophen-3-yl-1,4-dihydro-chromeno[4,3-c]pyrazol-3-yl]-methanone] | 
< 100 | COc1cc2c(cc1-c1cnn(C)c1C)-c1c(c(C(=O)N3CCOCC3(C)C)nn1-c1ccsc1)CO2 [Compound 124, (3,3-Dimethyl-morpholin-4-yl)-[8-(1,5-dimethyl-1H-pyrazol-4-yl)-7-methoxy-1-thiophen-3-yl-1,4-dihydro-chromeno[4,3-c]pyrazol-3-yl]-methanone] | 
> 5000 | COc1cc2c(cc1-c1ccn(C)c1)-c1c(c(C(=O)N3CCN(C(C)=O)CC3)nn1-c1ccsc1)CO2 [Compound 155, 1-{4-[7-Methoxy-8-(1-methyl-1H-pyrrol-3-yl)-1-thiophen-3-yl-1,4-dihydro-chromeno[4,3-c]pyrazole-3-carbonyl]-piperazin-1-yl}-ethanone] | 
 | [2H]C([2H])([2H])OCC(C)(C)N(C(=O)c1nn(-c2ccsc2)c2c1COc1cc(OC)c(C=C(C)C)cc1-2)C([2H])([2H])[2H] [Compound 58] | < 100
< 100 | CCn1nccc1-c1cc2c(cc1OC)OCc1c(C(=O)N3CCOCC3(C)C)nn(-c3ccsc3)c1-2 [Compound 213, (3,3-Dimethyl-morpholin-4-yl)-[8-(2-ethyl-2H-pyrazol-3-yl)-7-methoxy-1-thiophen-3-yl-1,4-dihydro-chromeno[4,3-c]pyrazol-3-yl]-methanone] | 
100 to 1000 | COc1cc2c(cc1-c1ccn(C)n1)-c1c(c(C(=O)NC3(C)COC3)nn1-c1ccsc1)CO2 [Compound 100, 7-Methoxy-8-(1-methyl-1H-pyrazol-3-yl)-1-thiophen-3-yl-1,4-dihydro-chromeno[4,3-c]pyrazole-3-carboxylic acid (3-methyl-oxetan-3-yl)-amide] | 
> 5000 | [2H]C([2H])([2H])OC1CC(N(C(=O)c2nn(-c3ccsc3)c3c2COc2cc(OC)c(-c4ccn(C)c4)cc2-3)C([2H])([2H])[2H])C1 (stereo not shown) [Compound 142] | 
